Where two headings read alike, the source gives them in different places.
Assays:
[1] = tested on: normal HFF-1 fibroblast cells; assay: MTT cell viability assay on normal fibroblasts; assay type: cell-based, human; details: 72 h
Protocol: The cell viability was assessed using MTT assay, as previously described. Briefly, the cells were seeded in 96-well plates (4 × 10^3 cells/well) and were treated for 72 h with different concentrations of RSV, DF5, and DF12. The IC50 values were extrapolated from dose–response curves and calculated using the CompuSyn software (https://www.combosyn.com/). The selectivity index (SI) values were calculated as ratios between the IC50 values of compounds in normal HFF-1 fibroblast cells and the IC50 values of the same compounds in the PC cell lines.

[2] = Enzymatic stability in simulated gastric fluid (SGF) with pepsin; assay type: in vitro ADME; details: SGF pH 1.2 with pepsin, 37 °C
Protocol: The SGF and SIF, containing pepsin and pancreatin, respectively, were prepared following the USP specifications. The reactions were carried out in a shaking water bath at 37 °C. The drug stock solution (10 μL of a 10^−4 M) was added to the preheated gastrointestinal fluids and, at fixed time points (0, 15, 30, and 60 min for SGF and 0, 60, 120, and 180 min for SIF), 20 μL of the media were mixed with 200 μL of cold acetonitrile containing 0.5% v/v of formic acid. The samples were centrifuged for 10 min at 5000× g and the supernatants were analyzed using HPLC. The relative difference (RD%) was used to predict the amount of compound decomposed in the presence of gastrointestinal fluids.

Cyclin D3 = assay: Western blot of cyclin D3 in PC cell lines; assay type: cell-based, human; details: 50 μM
Protocol: (§1) The PC cell lines treated with 50 μM DF5, RSV, or with vehicle (DMSO) were lysed in a cell lysis buffer containing PMSF, protease inhibitors cocktails, and phosphatase inhibitors. The protein lysate quantification and immunoblot analyses were performed as previously described.

[3] = tested on: AsPC-1, BxPC-3 and Capan-2 PC cell lines; assay: Cell growth, trypan blue exclusion test; assay type: cell-based, human; details: 50 μM, counted at 24, 48 and 72 h, three PC cell lines, vs control
Protocol: The cell counting was performed using the trypan blue exclusion test. Briefly, PC cells were seeded in 24-well plates (5 × 10^4 cells/well) and then were treated with 50 μM of DF5, RSV, or with vehicle and counted at 24, 48, and 72 h.

[4] = Human plasma stability assay; assay type: in vitro ADME; details: 80% human plasma, 37 °C
Protocol: The in vitro enzymatic stabilities of DF5 were assessed in human plasma and simulated gastric and intestinal fluids (SGF and SIF, respectively). For the human plasma stability assay, 10 μL of a 10^-4 M stock solution of DF5 in acetonitrile was added to a pre-heated (37 °C) plasma fraction and diluted with phosphate buffer (pH 7.4, 0.02 M) to obtain a final volume of 1 mL (80% plasma). The samples (50 µL) were extracted at various times and 200 µL of cold acetonitrile containing 0.5% v/v of formic acid were employed to stop the enzymatic reaction. After centrifugation for 10 min at 5000 g, the supernatant was removed and analyzed using HPLC [57].

AsPC-1 [5] = assay: Apoptosis assay, annexin-V staining by flow cytometry; assay type: cell-based, human; details: 24 h
Protocol: (§2) The apoptosis assay was performed essentially as previously described. the analyses were performed using a CytoFLEX flow cytometer, using the FL1 detector in linear mode and the CytoExpert software (Beckmann Coulter, Milano, Italy).

BxPC-3 [6] = assay: as above; assay type: cell-based, human; details: 24 h
Protocol: as §2

Capan-2 [7] = assay: as above; assay type: cell-based, human; details: 24 h
Protocol: as §2

AsPC-1 [8] = assay: Colony formation assay; assay type: cell-based, human; details: AsPC-1, 20 µM, 72 h treatment
Protocol: (§3) A colony formation assay was performed as previously described. Briefly, the PC cells were seeded in 6-well plates, incubated for 24 h, and then treated for 72 h with 20 μM DF5, DF12, and RSV or with vehicle (DMSO) as indicated. After 4 days, following methanol fixation and crystal violet staining, the colonies of at least 30 cells were counted.

BxPC-3 [9] = assay: Colony formation assay; assay type: cell-based, human; details: BxPC-3, 20 µM, 72 h treatment
Protocol: as §3

Capan-2 [10] = assay: Colony formation assay; assay type: cell-based, human; details: Capan-2, 20 µM, 72 h treatment
Protocol: as §3

p-SER^139H2AX = assay: Western blot of phospho-H2AX (γH2AX) in PC cell lines; assay type: cell-based, human
Protocol: as §1

[11] = tested on: poly-(ADP-ribose) polymerase (PARP); assay: Western blot of PARP cleavage in PC cell lines; assay type: cell-based, human; details: vs untreated cells
Protocol: as §1

cyclin B1/CDK1 complex = assay: Western blot of cyclin B1, Cdc2/Cdk1 and p-Cdc2 (Thr161) in PC cell lines; assay type: cell-based, human; details: 50 μM
Protocol: as §1

PAMPA-GI permeability = assay type: in vitro ADME; details: for Papp at 16 h, 500 µM: PAMPA, 16 h incubation, read-out: Permeability, Pe
Protocol: A PAMPA was used to evaluate the passive intestinal absorption of DF5. The system consisted in a 96-well, MultiScreen-IP PAMPA filter plate (donor plate) equipped with a PVDF membrane filter and a 96-well PTFE acceptor plate. The PVDF membrane was coated with 5 µL of a 2% w/v lecithin in n-dodecane solution. […] Donor and acceptor solutions, both containing 5% of DMSO v/v%, were employed to avoid precipitation of the drug. The system was assembled placing the drug-filled donor plate into the acceptor plate and incubated at room temperature for 16 h. Each solution was analyzed using HPLC and the permeability (Pe, nm/s) was determined as previously reported.

For `Cc1ccc(/C=C/c2ccc(O)cc2)cc1` [DF5], the “toxicity against normal HFF-1 fibroblast cells” value ([1]; up to 100 μM) was “negligible toxicity”, the IC50 ([1]; Homo sapiens, normal HFF-1 fibroblasts, 100 μM highest concentration used) was greater than 100 µM and the “RD% (relative difference)” value ([2]; 15 min) was 4.36%. The “RD% (relative difference)” value ([2]; 30 min) was 7.10%, the “RD% (relative difference)” value ([2]; 60 min) was 8.87% and the “effect on cyclin D3 expression” value (Cyclin D3) was “clear-cut reduction or even an abolishment in the expression of cyclin D3”. For the same molecule, the “effect on cell growth (cell number)” value [3] was “significantly, drastically, and comparably affected cell growth”, the “stability in human plasma” value [4] was “stable (stable: RD% < 5%)” and the “apoptosis induction (Annexin V+ cells)” value (AsPC-1 [5]; AsPC-1, 20 μM) was “statistically significant apoptosis”. For the same molecule, the “apoptosis induction (Annexin V+ cells)” value (AsPC-1 [5]; AsPC-1, 50 μM) was “significant induction of apoptosis”, the “apoptosis induction (Annexin V+ cells)” value (BxPC-3 [6]; BxPC-3, 20 μM) was “neither compound affected apoptosis” and the “apoptosis induction (Annexin V+ cells)” value (BxPC-3 [6]; BxPC-3, 50 μM) was “significant induction of apoptosis”. For the same molecule, the “apoptosis induction (Annexin V+ cells)” value (Capan-2 [7]; Capan-2, 20 μM) was “statistically significant apoptosis”, the “apoptosis induction (Annexin V+ cells)” value (Capan-2 [7]; Capan-2, 50 μM) was “significant induction of apoptosis” and the “effect on clonogenicity (colony formation)” value (“effect on clonogenicity” below) (AsPC-1 [8]) was “totally abolish colony formation”. The “effect on clonogenicity” value (BxPC-3 [9]) was “totally abolish colony formation”, the “effect on clonogenicity” value (Capan-2 [10]) was “more drastic, prominent, and consistent effects on PC cell clonogenicity” and the “activation (phosphorylation) of H2AX” value (p-SER^139H2AX; AsPC-1, 50 μM) was “marked activation of H2AX”. For the same molecule, the “activation (phosphorylation) of H2AX” value (p-SER^139H2AX; BxPC-3, 50 μM) was “negligible activation”, the “activation (phosphorylation) of H2AX” value (p-SER^139H2AX; Capan-2, 50 μM) was “less marked” and the “effect on cleaved:uncleaved PARP ratio” value ([11]; AsPC-1, 50 μM) was “strong increase in cleaved:uncleaved PARP ratios”. For the same molecule, the “effect on cleaved:uncleaved PARP ratio” value ([11]; BxPC-3, 50 μM) was “minimal effects on the PARP cleavage ratio”, the “effect on cleaved:uncleaved PARP ratio” value ([11]; Capan-2, 50 μM) was “strong increase in cleaved:uncleaved PARP ratios” and the “effect on expression of the cyclin B1/CDK1 complex” value (cyclin B1/CDK1 complex; AsPC-1 and Capan-2, also Cdc2/CDK1 dephosphorylation at Thr-161) was “reduction in the expression of the cyclin B1/CDK1 complex”. For the same molecule, the “effect on expression of the cyclin B1/CDK1 complex” value (cyclin B1/CDK1 complex; BxPC-3) was “much less evident”, the Papp at 16 h, 500 µM (PAMPA-GI permeability; pH 5 (donor and acceptor)) was 6.02 ×10⁻⁶ cm/s and the Papp at 16 h, 500 µM (PAMPA-GI permeability; pH 6.5 (donor and acceptor)) was 9 ×10⁻⁶ cm/s. The Papp at 16 h, 500 µM (PAMPA-GI permeability; pH 7.4 (donor and acceptor)) was 2.59 ×10⁻⁶ cm/s, the “Classification (GI permeation)” value (PAMPA-GI permeability; pH 5) was “Pe+ (Pe+ (indicative of high GI permeation): Pe (nm s^−1) > 10)” and the “Classification (GI permeation)” value (PAMPA-GI permeability; pH 6.5) was “Pe+ (Pe+ (indicative of high GI permeation): Pe (nm s^−1) > 10)”. For the same molecule, the “Classification (GI permeation)” value (PAMPA-GI permeability; pH 7.4) was “Pe+ (Pe+ (indicative of high GI permeation): Pe (nm s^−1) > 10)”.

— publication PMC9916441, “Resveratrol Derivative Exhibits Marked Antiproliferative Actions, Affecting Stemness in Pancreatic Cancer Cells” (International Journal of Molecular Sciences, 2023)
